Here are results for 3 molecules from patent US12673036B2, “Method of using L-triiodothyronine (T3) for the treatment of tissue hypoxia and sepsis” (UNI-PHARMA KLEON TSETIS PHARMACEUTICAL LABORATORIES S.A., priority 2020, dated 2026).

The test system of assay [1] is patients with non-ST-segment elevation myocardial infarction. To be noted: patients with NSTEMI; cited from earlier work.
In assay [2] the test system is xenograft models (non-small cell lung, multiple myeloma, breast, glioblastoma, and ovary). To be noted: cited from earlier work.
Assay [3] has as its system sepsis. The settings on record: rat sepsis models; cited from earlier work.
In assay [4] the test system is male C57BL/6N mice. Nature of the assay: Cecal ligation and puncture (CLP) sepsis model. Format: in vivo. Here is the method: The effect of T3 administration in high dosages in the treatment of tissue hypoxia due to microvascular dysfunction occurring in the myocardium, kidneys and liver is evaluated in a sepsis experimental model using male C57BL/6N mice of 10-12 weeks age. The animal studies were carried out in compliance with all necessary regulations in force.
The simulation of the clinical conditions during sepsis leading to tissue hypoxia and microvascular dysfunction is achieved following the most widely used clinical model of cecal ligation and puncture (CLP). In this experimental model, ligation distal to the ileocecal valve (25% of total cecum length) and perforation by a single 21 G puncture is performed under sevoflurane anesthesia causing leakage of fecal contents into the peritoneum, with subsequent polymicrobial bacteremia and sepsis. The perforation of the cecum allows the release of fecal material into the peritoneal cavity to generate an exacerbated immune response induced by polymicrobial infection. In this model, sepsis causes systemic activation of the inflammatory response, microvascular dysfunction, tissue hypoxia, multi-organ failure, and hemodynamic disorder that results in death as in clinical practice.
The animals are supported by subcutaneous fluid administration every 8 hours and administration of buprenorphine 0.1 mg/kg and paracetamol 300 mg/kg, as is the case with septic patients in the intensive care unit (ICU). All animals are closely monitored for their clinical status based on a modified score scale known as the Lipopolysaccharide (LPS) Score Sheet.
The animals divide into 2 groups: the first group receives placebo (placebo group) and the second group receives intraperitoneally a dose of 0.3 μg T3/g of body weight, immediately after surgery (group T3). Based on guidelines for converting doses from experimental animals to equivalent doses in humans (Nair, A B and Jacob S. A simple practice guide for dose conversion between animals and humans. I Basic C/in Pharma 2016, 7: 27-31), the dose of 0.3 μg T3/g of body weight, corresponds roughly to intravenous administration of 7 μg T3/Kg body weight, i.e., from 400 to 600 μg T3 for a patient weighing 60-80 Kg. This dose is very high and beyond any T3 treatment in hypothyroid patients. The study is performed in two separate experiments. In the first experimental protocol, the clinical condition of the animals and mortality after 72 hours is examined, while in the second experimental protocol, tissue hypoxia at the cellular level after euthanasia at 18 hours is studied.
Initially, lactate levels in blood samples are measured (using L-lactate assay kit from Sigma-Aldrich, MAK329) as a general indicator of hypoxia, which is also commonly used in clinical practice in patients with sepsis. Furthermore, creatinine levels in blood are measured as an indicator of renal function (using the Mouse Creatinine Kit Cat. 80350, Crystal Chem). Finally, an echocardiographic analysis is performed in order to evaluate the end-diastolic and end-systolic volume, the ejection fraction and the pulse volume according to the Simpson rule.
Echocardiographic analysis was performed after mild anesthesia with sevoflurane (0.8%) and placing the animal in a heated blanket. Echocardiographic images were then taken along the longitudinal and transverse sternal axis with the Vivid 7 version Pro ultrasound system (GE Healthcare, Wauwatosa, Wisconsin), equipped with a 14.0-MHz probe (i13L).
Tissue hypoxia at the cellular level is determined in frozen fixed tissues in 4% paraformaldehyde based on the standard method of pimonidazole administration using the Hypoxyprobe™ Plus kit. Pimonidazole is dissolved and administered intravenously in mice at a dose of 60 mg/kg, 2 hours before euthanasia. After intracardiac infusion with paraformaldehyde, the organs are fixed, removed and dehydrated for 5 days in 30% sucrose solution. […]

In assay [5] the test system is p38 MAPK. The settings on record: T3 40 μg/L, P<0.05, cited from earlier work.
The subject of assay [6] is isolated rat heart. Put plainly: Isolated rat heart, prolonged 4 hour hypoxic perfusion ex vivo. From the text: (§1) The isolated rat heart model was used to simulate non-ischemic conditions of tissue hypoxia ex vivo. In this study, rat hearts were only perfused with oxygenated Krebs buffer containing electrolytes and glucose under normothermia. Despite normal perfusion, the organ gradually develops significant dysfunction over hours due to the absence of erythrocytes and hemoglobin that create hypoxic conditions. […] It should be noted that such an increase in LVEDP may lead to pulmonary edema in vivo. Furthermore, the force of contraction was reduced as evident by a 25% decrease in left ventricular developed pressure (LVDP) in Control hearts (FIG. 2).

In assay [7] the test system is p38 MAPK. Put plainly: p38 MAPK activation in isolated rat heart after 4 hours hypoxic perfusion. To be noted: after 4 hours of prolonged hypoxic perfusion, p<0.05.
Text: as §1

Setting [8] is: 18 hours after sepsis induction.
The mark [9] stands for this setting: 40 μg/L after first 30 min of hypoxic perfusion, 4 hours.

Where two headings read alike, the source gives them in different places.

With `Cc1c(F)cc(C(=O)NC2CC2)cc1-c1ccc(C(=O)NCC(C)(C)C)cn1` [Losmapimod], the myocardial protective effects entry in assay [1] is reported as “presented myocardial protective effects”.
As to `CC(C)(C)Cn1c(N)nc2ccc(-c3[nH]c(C(C)(C)C)nc3-c3ccc(F)cc3)nc21` [Ralimetinib], in assay [2], the “antineoplastic activity as a single agent” value is “demonstrated antineoplastic activity”.
Consider `N[C@@H](Cc1cc(I)c(Oc2ccc(O)c(I)c2)c(I)c1)C(=O)O` [T3, L-triiodothyronine], for which, in assay [3], the cytokine storm entry is on record as “reduce cytokine storm”; the “lung function and surfactant synthesis” value was “maintain lung function and surfactant synthesis”; the survival entry is reported as “improve survival”. In addition, in assay [4] (18 hours after sepsis), the creatinine levels result was “did not increase”; the “hepatic tissue hypoxia (pimonidazole)” value is “statistically significant reduction”; the “renal tissue hypoxia (pimonidazole) in OSOM and ISOM” value is “significantly reduce”. In assay [4] (setting [8]), the “ejection fraction (echocardiography)” value is recorded as “within normal range” and the “pulse volume (echocardiography)” value is listed as “within normal range”. Also, the “lactic acid levels in blood” value in assay [4] (18 hours after sepsis, 0.3 μg T3/g i.p.) is “decrease”. Moreover, the “myocardial tissue hypoxia, pimonidazole-positive tissue of the left ventricular total tissue” value in assay [4] (18 hours, p=0.028 vs placebo) is recorded as 1.5%±0.5. For the same molecule, in assay [4] (24 hours after sepsis, 0.3 μg T3/g i.p.), the “lactic acid levels in blood” value is listed as “decrease”. For the same molecule, the animals surviving entry in assay [4] (72 hours after CLP, 0.3 μg T3/g i.p.) is “up to 20%”. Besides, the heart rate entry in assay [4] (after sepsis induction) is listed as “within normal range”. Further, the “phospho-p38 MAPK levels, less than control” value in assay [5] (after 5 minutes of reperfusion) is recorded as 2.3 fold. Besides, the “phospho-p38 MAPK levels, less than control” value in assay [5] (after 15 minutes of reperfusion) was 2.1 fold. In assay [6] (setting [9]), the diastolic dysfunction result is listed as “attenuated diastolic dysfunction” and the “left ventricular end-diastolic pressure (LVEDP)” value is on record as “maintained LVEDP at normal values”. For the same molecule, the “force of contraction (left ventricular developed pressure, LVDP)” value in assay [6] (40 μg/L, after 4 hours) is “improved force of contraction”. In addition, the “perfusion pressure of coronary vessels (microvascular dysfunction)” value in assay [6] (after 4 hours hypoxic perfusion) is reported as “lower perfusion pressure”. For the same molecule, in assay [7], the “prevention of p38 MAPK activation” value came to 3 fold.
